From patent US10238670B2, “9-aminomethyl minocycline compounds and methods of use thereof in urinary tract infection (UTI) treatment” (Paratek Pharmaceuticals, Inc., priority 2016, dated 2019)
Like-named read-outs stand apart in the source and are kept apart here.

Assay: Phase 1b study in female adults with cystitis, plasma PK
Type: in vivo, human
Conditions: plasma, plasma; for half-life / AUC(0-t) / Cmax / concentration at 5 day / Tmax: female, human
Description: According to the study design, a randomized (1:1:1), open-label, parallel designed Phase 1b study comparing 3 dosing regimens of Compound 1 (9-[(2,2-dimethyl-propyl amino)-methyl-minocycline) in the treatment of female adults with cystitis was conducted. About 31 female patients with uncomplicated urinary tract infection (cystitis) who met inclusion and exclusion criteria were enrolled at 2-4 U.S. treatment centers. All enrolled subjects participated in the study for approximately 5-6 weeks. Following Screening of up to 48 hrs, eligible subjects were randomly assigned to receive one of 3 dosing regimens of Compound 1 treatment as shown below. Subjects in all treatment groups were domiciled for a 5-day treatment period. Details of the study are further described below.
Subjects were randomized (1:1:1) to one of the following treatment arms: • 1. Group 1: IV load, p.o. daily (200 mg Compound 1 IV every 24 hours (q24h) for 1 dose, followed by 300 mg p.o. q24h for a total of 5 days); • 2. Group 2: p.o. load, p.o. daily (300 mg Compound 1 p.o. every 12 hours (q12h) for 2 doses, followed by 300 mg p.o. q24h for a total of 5 days); • 3. Group 3: high p.o. load, high p.o. daily (450 mg Compound 1 p.o. q12h for 2 doses, followed by 450 mg p.o. q24h for a total of 5 days).
Blood samples were collected and analyzed for Compound 1 concentration at the following times. Pre-dose blood PK evaluations were based on blood samples collected within 10 min of each start (e.g., t=0 h dose for Day 1, t=24 h dose for Day 2, etc.). • Day 1: Pre-dose, and 0.75, 1, 2, 3, 4, 6, 8 and 12 hours after the t=0 h dose (12 h sample before the t=12 h dose for Groups 2 and 3); • Day 2: prior to the t=24 h dose; • Day 3: prior to the t=48 h dose; • Day 4: prior to the t=72 h dose; • Day 5: Pre-dose, and 0.5, 1, 2, 3, 4, 6, 8 and 12 hours after the t=96 h dose • Day 6: at t=120 h (24 hours after the t=96 h dose on Day 5)
Following the final oral doses on Day 5 the Compound 1 plasma concentration-time data for Groups 1, 2 and 3 were used to determine Cmax, Tmax, AUC24h, AUCt. Trough plasma concentrations (Ctrough) following each dose (Days 2 to 6) were also determined.
Blood samples for PK are collected at the time points specified below. • Day 1: Predose, and 0.75, 1, 2, 3, 4, 6, 8 and 12 hours after the t=0 h dose (12 h sample before the t=12 h dose for Groups 2 and 3); • Day 2: prior to the t=24 h dose; • Day 3: prior to the t=48 h dose; • Day 4: prior to the t=72 h dose; • Day 5: Predose, and 0.5, 1, 2, 3, 4, 6, 8 and 12 hours after the t=96 h dose • Day 6: at t=120 h (24 hours after the t=96 h dose on Day 5)
Blood was collected either by fresh venipuncture or via a cannula used solely for that purpose. The dates and times for all doses of test article and PK sample collections were recorded. For intravenously administered doses of test article, the start and stop times for each infusion were recorded. Immediately after the sample was collected, the tube was gently inverted 5 to 8 times to thoroughly mix the anticoagulant and then placed upright in a cryoblock or test tube rack surrounded by ice until centrifugation. Samples were centrifuged at 1500×g for 10 minutes at approximately 4° C. within 30 minutes of collection. The resultant plasma was divided into 2 equal aliquots, placed in individual cryovials, and immediately frozen at −20° C. or colder within 1 hour of collection. The samples were kept frozen at −20° C. or colder pending shipment to the bioanalytical laboratory.
The Compound 1 plasma concentration data was listed and summarized by time point and treatment group. The following PK parameters were estimated from the Compound 1 plasma concentration-time data: […]

With `CN(C)c1cc(CNCC(C)(C)C)c(O)c2c1C[C@H]1C[C@H]3[C@H](N(C)C)C(O)=C(C(N)=O)C(=O)[C@@]3(O)C(O)=C1C2=O` [Compound 1, 9-[(2,2-dimethyl-propylamino)-methyl]-minocycline] the half-life (oral, 300 mg, Day 5, IV_PO300, read-out: T½, Mean (converted)) was 13.8 h, the half-life (oral, 300 mg, Day 5, IV_PO300, read-out: T½, Median (converted)) was 12.1 h and the AUC(0-t) (oral, 300 mg, Day 5, PO300, read-out: AUC(0-24 hrs), Geo. Mean) was 12400 ng·h/mL. For the same compound, the AUC(0-t) (oral, 300 mg, Day 5, PO300, read-out: AUC(0-24 hrs), Mean) was 13500 ng·h/mL, the AUC(0-t) (oral, 300 mg, Day 5, PO300, read-out: AUC(0-24 hrs), Median) was 13400 ng·h/mL and the Cmax (oral, 300 mg, Day 5, PO300, read-out: Cmax, Geo. Mean) was 999 ng/mL. The Cmax (oral, 300 mg, Day 5, PO300, read-out: Cmax, Mean) was 1120 ng/mL, the Cmax (oral, 300 mg, Day 5, PO300, read-out: Cmax, Median) was 1070 ng/mL and the concentration at 5 day (oral, 300 mg, Day 5, PO300, read-out: Ctrough, Geo. Mean) was 293 ng/mL. The concentration at 5 day (oral, 300 mg, Day 5, PO300, read-out: Ctrough, Mean) was 319 ng/mL, the concentration at 5 day (oral, 300 mg, Day 5, PO300, read-out: Ctrough, Median) was 315 ng/mL and the Tmax (oral, 300 mg, Day 5, PO300, read-out: Tmax, Geo. Mean) was 3.61 h. For the same compound, the Tmax (oral, 300 mg, Day 5, PO300, read-out: Tmax, Mean) was 3.9 h, the Tmax (oral, 300 mg, Day 5, PO300, read-out: Tmax, Median) was 3 h and the AUC(0-t) (oral, 450 mg, Day 1, PO450, read-out: AUC(0-12 hrs), Geo. Mean) was 6690 ng·h/mL. The AUC(0-t) (oral, 450 mg, Day 1, PO450, read-out: AUC(0-12 hrs), Mean) was 6850 ng·h/mL, the AUC(0-t) (oral, 450 mg, Day 1, PO450, read-out: AUC(0-12 hrs), Median) was 6650 ng·h/mL and the Cmax (oral, 450 mg, Day 1, PO450, read-out: Cmax, Geo. Mean) was 948 ng/mL. It also gave a Cmax (oral, 450 mg, Day 1, PO450, read-out: Cmax, Mean) of 987 ng/mL, a Cmax (oral, 450 mg, Day 1, PO450, read-out: Cmax, Median) of 947 ng/mL and a Tmax (oral, 450 mg, Day 1, PO450, read-out: Tmax, Geo. Mean) of 2.21 h. It also gave a Tmax (oral, 450 mg, Day 1, PO450, read-out: Tmax, Median) of 3 h, an AUC(0-t) (oral, 450 mg, Day 5, PO450, read-out: AUC(0-24 hrs), Geo. Mean) of 18700 ng·h/mL and an AUC(0-t) (oral, 450 mg, Day 5, PO450, read-out: AUC(0-24 hrs), Mean) of 19800 ng·h/mL. For the same compound, the AUC(0-t) (oral, 450 mg, Day 5, PO450, read-out: AUC(0-24 hrs), Median) was 21600 ng·h/mL, the Cmax (oral, 450 mg, Day 5, PO450, read-out: Cmax, Geo. Mean) was 1360 ng/mL and the Cmax (oral, 450 mg, Day 5, PO450, read-out: Cmax, Mean) was 1490 ng/mL. It also gave a Cmax (oral, 450 mg, Day 5, PO450, read-out: Cmax, Median) of 1640 ng/mL, a concentration at 5 day (oral, 450 mg, Day 5, PO450, read-out: Ctrough, Geo. Mean) of 462 ng/mL and a concentration at 5 day (oral, 450 mg, Day 5, PO450, read-out: Ctrough, Mean) of 484 ng/mL. It also gave a concentration at 5 day (oral, 450 mg, Day 5, PO450, read-out: Ctrough, Median) of 503 ng/mL, a Tmax (oral, 450 mg, Day 5, PO450, read-out: Tmax, Geo. Mean) of 2.64 h and a Tmax (oral, 450 mg, Day 5, PO450, read-out: Tmax, Mean) of 3.36 h. It also gave a Tmax (oral, 450 mg, Day 5, PO450, read-out: Tmax, Median) of 3.02 h, a Tmax (po, 300 mg, Day 1, 300 mg po (n = 10), median, read-out: tmax) of 3 h and a Cmax (po, 300 mg, Day 5, 300 mg po (n = 10), mean, read-out: Cmax) of 1120 ng/mL. It also gave a Tmax (po, 300 mg, Day 5, 300 mg po (n = 10), median, read-out: tmax) of 3 h, an AUC(0-t) (po, 450 mg, Day 1, 450 mg po (n = 10), mean, read-out: AUC0-12) of 6850 ng·h/mL and a Tmax (po, 450 mg, Day 1, 450 mg po (n = 10), median, read-out: tmax) of 3 h. It also gave a Cmax (po, 450 mg, Day 1, 450 mg po (n = 10), mean, read-out: Cmax) of 990 ng/mL, an AUC(0-t) (po, 450 mg, Day 5, 450 mg po (n = 10), mean, read-out: AUC0-24) of 19800 ng·h/mL and a Cmax (po, 450 mg, Day 5, 450 mg po (n = 10), mean, read-out: Cmax) of 1490 ng/mL. For the same compound, the Tmax (po, 450 mg, Day 5, 450 mg po (n = 10), median, read-out: tmax) was 3 h, the “Lambda Z, Geo. Mean” value (Day 1, IV_PO300) was 0.0614 h⁻¹ and the “Lambda Z, Mean” value (Day 1, IV_PO300) was 0.0620 h⁻¹. The “Lambda Z, Median” value (Day 1, IV_PO300) was 0.0605 h⁻¹, the “Tmax, Mean” value (Day 1, PO450) was 2.492 h and the “Lambda Z, Geo. Mean” value (Day 5, IV_PO300) was 0.0526 h⁻¹. The “Lambda Z, Mean” value (Day 5, IV_PO300) was 0.0545 h⁻¹ and the “Lambda Z, Median” value (Day 5, IV_PO300) was 0.0574 h⁻¹.
